How the values were obtained:
[1] = system: patients diagnosed with primary osteoporosis; experiment: Lumbar spine bone mineral density by DXA, Working Example 1 (5 or 100 units once a week); format: in vivo, human; conditions: low-risk patients, only one patient
Protocol: (§1) Both the 5 and 100 unit groups were administered two tablets of a calcium agent (containing 500 mg of precipitated calcium carbonate [200 mg as calcium] per tablet) once a day.
(§2) The osteoporosis patients were classified as condition shown in Table 1 based on the bone fracture risk factors present, as in Non-patent Reference 13, and compared. High-risk patients were defined as having all three factors involving age, prevalent vertebral fractures, and bone density or bone atrophy; low-risk patients were defined as other than the above.

[2] = system: patients diagnosed with primary osteoporosis; experiment: New vertebral fractures by x-ray (method of Genant), Working Example 1; format: in vivo, human; conditions: for Incidence (%) / No. of fractures / No. with fractures: new vertebral fractures every 26 weeks; for No. of vertebral fractures / No. with fractures (persons): new vertebral fractures
Protocol: as §1, §2

[3] = system: patients diagnosed with primary osteoporosis; experiment: Fractures at sites other than the vertebrae (roentgen films), Working Example 1; format: in vivo, human; conditions: fractures of sites other than the vertebrae
Protocol: as §1, §2

[4] = system: high-risk patients diagnosed with primary osteoporosis; experiment: Lumbar spine bone density by DXA, Working Example 2; format: in vivo, human; conditions: 200 units once a week; for Change in bone density (%): patients taking glucocorticoid
Protocol: For the bone density of the lumbar spine, the density of the second to fourth lumbar spine was measured at the start and every 24 weeks thereafter using dual-energy x-ray absorptiometry (DXA).

[5] = system: high-risk patients diagnosed with primary osteoporosis; experiment: CT geometry of the femur (multislice CT), Working Example 2; format: in vivo, human; conditions: 200 units once a week
Protocol: For the CT geometry, the proximal part of the femur was measured at the start and after 48 and 72 weeks using multislice CT scan.
The effects of the test drug on three parts of the femur (neck of the femur, trochanter, and shaft of the femur) were studied using ordinary CT scans.

[6] = system: high-risk patients diagnosed with primary osteoporosis; experiment: Vertebral fractures (new+worsening), Kaplan-Meier estimation, Working Example 2; format: in vivo, human; conditions: after 72 weeks; FAS; 200 units once a week
Excerpt: The incidence of bone fractures was checked by frontal and lateral x-rays of the fourth thoracic to the fourth lumbar spine taken at the start and every 24 weeks thereafter.
The incidence of vertebral fractures (new±worsening) after 72 weeks by Kaplan-Meier estimation in the FAS of the fracture study was 3.5% in the PTH200 group and 16.3% in the P group. The incidence with 200 units of this drug was lower than in the placebo group (log rank test, p<0.0001). […] When the six-month vertebral fracture (new+worsening) incidence was compared between groups, the incidence of the PTH200 group was lower than that of the P group in all divisions consisting of within 24 weeks, 24 to 48 weeks, and 48 to 72 weeks.

[7] = in vivo
Protocol: The Lumbar spine bone mineral density and occurrence of bone fractures were checked as bone assessments. For the Lumbar spine bone mineral density, the bone density of the second to fourth lumbar spine was measured at the start and every six months thereafter using dual-energy x-ray absorptiometry (DXA). For the frequency of bone fractures, x-rays were taken from the front and side of the fourth thoracic to the fifth lumbar spine at the start and every six months thereafter, and new vertebral fractures were assessed by comparison of the roentgen films at the start and at each point in time thereafter using the method of Genant et al. (Non-patent Reference 14) as a reference. In locations other than the vertebrae, fractures were evaluated by checking by roentgen films. Blood samples were also taken from all patients at the beginning and during administration, and the general laboratory test values, including the calcium concentration, were measured. The administration period in high-risk patients (DXA and new vertebral fractures were assessed collectively at the center; fractures of other than vertebrae were assessed by the investigator based on the roentgen films) was 85.1±20.8 weeks in the 5 unit group and 83.7±19.8 weeks in the 100 unit group. […] The administration period in low-risk patients was 72.7±19.4 weeks in the 5 unit group and 88.3±21.3 weeks in the 100 unit group.

[8] = in vivo; remark: listed apart in the source
Protocol: The serum calcium was measured at the start, after 12 weeks, after 24 weeks, after 48 weeks, and after 72 weeks. Serum calcium standard value: 8.4 to 10.4 mg/dL. The standard concomitant drug (610 mg of calcium, 400 IU of vitamin D3, and 30 mg of magnesium) was taken once a day after dinner from the time of consent to the end of the trial.

[9] = in vivo; remark: listed apart in the source
[10] = high-risk patients, 5 units once a week, After 26 W
[11] = high-risk patients, 5 units once a week, After 52 W
[12] = high-risk patients, 5 units once a week, After 78 W
[13] = high-risk patients, 5 units once a week, After 104 W
[14] = high-risk patients, 5 units once a week, After 130 W
[15] = high-risk patients, 100 units once a week, After 26 W
[16] = high-risk patients, 100 units once a week, After 52 W
[17] = high-risk patients, 100 units once a week, After 78 W
[18] = high-risk patients, 100 units once a week, After 104 W
[19] = high-risk patients, 100 units once a week, After 130 W
[20] = low-risk patients, 5 units once a week, After 26 W
[21] = low-risk patients, 5 units once a week, After 52 W
[22] = low-risk patients, 5 units once a week, After 78 W
[23] = low-risk patients, 5 units once a week, After 104 W
[24] = low-risk patients, 5 units once a week, After 130 W
[25] = low-risk patients, 100 units once a week, After 26 W
[26] = low-risk patients, 100 units once a week, After 52 W
[27] = low-risk patients, 100 units once a week, After 78 W
[28] = low-risk patients, 100 units once a week, After 104 W
[29] = low-risk patients, 100 units once a week, After 130 W
[30] = high-risk patients, 5 units once a week
[31] = high-risk patients, 100 units once a week
[32] = low-risk patients, 5 units once a week
[33] = low-risk patients, 100 units once a week

For teriparatide acetate, the “Lumbar spine bone mineral density (% change)” value ([1]; After 26 W) was 3.2%, the “Lumbar spine bone mineral density (% change)” value ([1]; After 52 W) was 6.1% and the “Lumbar spine bone mineral density (% change)” value ([1]; After 78 W) was 12.0%. The “Lumbar spine bone mineral density (% change)” value ([1]; Final check) was 12.0%, the “Incidence (%)” value [2, 10] was 9.5% and the No. of fractures [2, 10] was 8. For the same substance, the No. with fractures [2, 10] was 6, the “Incidence (%)” value [2, 11] was 11.1% and the No. of fractures [2, 11] was 9. The No. with fractures [2, 11] was 7, the “Incidence (%)” value [2, 12] was 7.0% and the No. of fractures [2, 12] was 4. The No. with fractures [2, 12] was 4, the “Incidence (%)” value [2, 13] was 2.9% and the No. of fractures [2, 13] was 1. For the same substance, the No. with fractures [2, 13] was 1, the No. of fractures [2, 14] was 0 and the No. with fractures [2, 14] was 0. For the same substance, the “Incidence (%)” value [2, 15] was 2.0%, the No. of fractures [2, 15] was 1 and the No. with fractures [2, 15] was 1. For the same substance, the “Incidence (%)” value [2, 16] was 2.0%, the No. of fractures [2, 16] was 1 and the No. with fractures [2, 16] was 1. For the same substance, the “Incidence (%)” value [2, 17] was 2.2%, the No. of fractures [2, 17] was 1 and the No. with fractures [2, 17] was 1. The No. of fractures [2, 18] was 0, the No. with fractures [2, 18] was 0 and the No. of fractures [2, 19] was 0. The No. with fractures [2, 19] was 0, the No. of fractures [2, 20] was 0 and the No. with fractures [2, 20] was 0. The “Incidence (%)” value [2, 21] was 4.8%, the No. of fractures [2, 21] was 1 and the No. with fractures [2, 21] was 1. It also gave a No. of fractures [2, 22] of 0, a No. with fractures [2, 22] of 0 and a No. of fractures [2, 23] of 0. For the same substance, the No. with fractures [2, 23] was 0, the No. of fractures [2, 24] was 0 and the No. with fractures [2, 24] was 0. For the same substance, the “Incidence (%)” value [2, 25] was 8.3%, the No. of fractures [2, 25] was 2 and the No. with fractures [2, 25] was 1. It also gave a No. of fractures [2, 26] of 0, a No. with fractures [2, 26] of 0 and a No. of fractures [2, 27] of 0. For the same substance, the No. with fractures [2, 27] was 0, the No. of fractures [2, 28] was 0 and the No. with fractures [2, 28] was 0. For the same substance, the No. of fractures [2, 29] was 0, the No. with fractures [2, 29] was 0 and the “No. of vertebral fractures” value [2, 30] was 22. The “No. with fractures (persons)” value [2, 30] was 13 persons, the “No. of vertebral fractures” value [2, 31] was 3 and the “No. with fractures (persons)” value [2, 31] was 3 persons. For the same substance, the “No. of vertebral fractures” value [2, 32] was 1, the “No. with fractures (persons)” value [2, 32] was 1 persons and the “No. of vertebral fractures” value [2, 33] was 2. The “No. with fractures (persons)” value [2, 33] was 1 persons, the “No. with fractures (persons)” value [3, 30] was 6 persons and the “No. with fractures (persons)” value [3, 31] was 1 persons. For the same substance, the “No. with fractures (persons)” value [3, 32] was 1 persons, the “No. with fractures (persons)” value [3, 33] was 0 persons and the “Percentage change in bone density (%)” value ([4]; 24 W, history of Alfacalcidol) was 3.11%. The “Percentage change in bone density (%)” value ([4]; 24 W, history of Calcitriol) was 3.50%, the “Percentage change in bone density (%)” value ([4]; 24 W, history of Calcium L-aspartate) was 3.78% and the “Percentage change in bone density (%)” value ([4]; 24 W, history of Calcium lactate) was 1.96%. For the same substance, the “Percentage change in bone density (%)” value ([4]; 24 W, history of Elcatonin) was 3.95%, the “Percentage change in bone density (%)” value ([4]; 24 W, history of Menatetrenone) was 2.70% and the “Percentage change in bone density (%)” value ([4]; 24 W, history of Raloxifene hydrochloride) was 1.77%. The “Change in bone density (%)” value ([4]; 24 W) was 3.50%, the “Percentage change in bone density (%)” value ([4]; 48 W, history of Alfacalcidol) was 5.47% and the “Percentage change in bone density (%)” value ([4]; 48 W, history of Calcitriol) was 4.40%. For the same substance, the “Percentage change in bone density (%)” value ([4]; 48 W, history of Calcium L-aspartate) was 6.16%, the “Percentage change in bone density (%)” value ([4]; 48 W, history of Calcium lactate) was 3.45% and the “Percentage change in bone density (%)” value ([4]; 48 W, history of Elcatonin) was 3.59%. The “Percentage change in bone density (%)” value ([4]; 48 W, history of Menatetrenone) was 3.04%, the “Percentage change in bone density (%)” value ([4]; 48 W, history of Raloxifene hydrochloride) was 4.96% and the “Change in bone density (%)” value ([4]; 48 W) was 5.97%. For the same substance, the “Percentage change in bone density (%)” value ([4]; 72 W, history of Alfacalcidol) was 6.47%, the “Percentage change in bone density (%)” value ([4]; 72 W, history of Calcitriol) was 6.38% and the “Percentage change in bone density (%)” value ([4]; 72 W, history of Calcium L-aspartate) was 5.85%. The “Percentage change in bone density (%)” value ([4]; 72 W, history of Calcium lactate) was 4.93%, the “Percentage change in bone density (%)” value ([4]; 72 W, history of Elcatonin) was 5.36% and the “Percentage change in bone density (%)” value ([4]; 72 W, history of Menatetrenone) was 4.32%. The “Percentage change in bone density (%)” value ([4]; 72 W, history of Raloxifene hydrochloride) was 4.59%, the “Change in bone density (%)” value ([4]; 72 W) was 6.82% and the “Volume bone mineral density (cortical bone) [vBMD cortical], change from baseline after 48 weeks (%)” value ([5]; Neck of femur) was −0.77%. For the same substance, the “Volume bone mineral density (total) [vBMD total], change from baseline after 48 weeks (%)” value ([5]; Neck of femur) was 0.92%, the “Volume bone mineral density (total) [vBMD total], change from baseline after 72 weeks (%)” value ([5]; Neck of femur) was 0.15% and the “Volume bone mineral density (cortical bone) [vBMD cortical], change from baseline after 48 weeks (%)” value ([5]; Shaft of femur) was 0.59%. For the same substance, the “Volume bone mineral density (cortical bone) [vBMD cortical], change from baseline after 72 weeks (%)” value ([5]; Shaft of femur) was 0.18%, the “Maximum section modulus (SM (Z min)), change from baseline after 72 weeks (%)” value ([5]; Trochanter) was 3.20% and the “Volume bone mineral density (cortical bone) [vBMD cortical], change from baseline after 48 weeks (%)” value ([5]; Trochanter) was −0.49%. For the same substance, the “Volume bone mineral density (total) [vBMD total], change from baseline after 72 weeks (%)” value ([5]; Trochanter) was 0.95%, the “Incidence of vertebral fractures (new±worsening) by Kaplan-Meier estimation” value [6] was 3.5% and the Hypercalcemia [7] was “did not cause hypercalcemia at either dose”. The “Tendency for the serum calcium to rise” value [7] was “no tendency for the serum calcium to rise was seen”, the “Corrected serum calcium, Max” value [8] was 10.0 mg/dL and the “Manifestation of hypercalcemia or hypercalciuria” value [8] was “No manifestation of hypercalcemia or hypercalciuria was found”. The “Patients with serum calcium exceeding 11.0 mg/mL” value [8] was “not even one patient”, the “Safety in terms of the serum calcium across renal function groups” value [8] was “equivalent safety in terms of the serum calcium in all groups” and the “Side effects: No, No. of cases” value [9] was 27. The “Side effects: Yes, No. of cases” value [9] was 22.

Reference: patent US20140249084A1, “PTH-CONTAINING THERAPEUTIC/PROPHYLACTIC AGENT FOR OSTEOPOROSIS, CHARACTERIZED IN THAT PTH IS ADMINISTERED ONCE A WEEK IN A UNIT DOSE OF 100 TO 200 UNITS” (ASAHI KASEI PHARMA CORPORATION, priority 2009, published 2014)
